From BigSolDB 2.1
Where a SMILES comes first, the peptide text is derived from it. [ ]: non-standard residue; d: D form. pGlu = O=C1CC[C@@H](C(=O)O)N1; Thz = O=C(O)[C@@H]1CSCN1

What does the source list for O=C1CC[C@@H](C(=O)N2CSC[C@H]2C(=O)O)N1 ([pGlu]-[Thz]-OH)?
solubility (mole fraction) (in DMF, 278.15 K): 0.00535; solubility (mole fraction) (in DMF, 283.15 K): 0.00604; solubility (mole fraction) (in DMF, 288.15 K): 0.00734; solubility (mole fraction) (in DMF, 293.15 K): 0.00953; solubility (mole fraction) (in DMF, 298.15 K): 0.0123; solubility (mole fraction) (in DMF, 303.15 K): 0.0151; solubility (mole fraction) (in DMF, 308.15 K): 0.0182; solubility (mole fraction) (in DMF, 313.15 K): 0.0214; solubility (mole fraction) (in DMF, 318.15 K): 0.0253; solubility (mole fraction) (in DMF, 323.15 K): 0.0291; solubility (mole fraction) (in acetone, 278.15 K): 3.1e-05; solubility (mole fraction) (in acetone, 283.15 K): 5e-05; solubility (mole fraction) (in acetone, 288.15 K): 8.5e-05; solubility (mole fraction) (in acetone, 293.15 K): 0.000121; solubility (mole fraction) (in acetone, 298.15 K): 0.000176; solubility (mole fraction) (in acetone, 303.15 K): 0.000249; solubility (mole fraction) (in acetone, 308.15 K): 0.000354; solubility (mole fraction) (in acetone, 313.15 K): 0.000522; solubility (mole fraction) (in acetone, 318.15 K): 0.000693; solubility (mole fraction) (in acetone, 323.15 K): 0.000925; solubility (mole fraction) (in acetonitrile, 278.15 K): 0.000297; solubility (mole fraction) (in acetonitrile, 283.15 K): 0.000336; solubility (mole fraction) (in acetonitrile, 288.15 K): 0.000426; solubility (mole fraction) (in acetonitrile, 293.15 K): 0.00052; solubility (mole fraction) (in acetonitrile, 298.15 K): 0.000691; solubility (mole fraction) (in acetonitrile, 303.15 K): 0.000855; solubility (mole fraction) (in acetonitrile, 308.15 K): 0.00107; solubility (mole fraction) (in acetonitrile, 313.15 K): 0.00132; solubility (mole fraction) (in acetonitrile, 318.15 K): 0.00159; solubility (mole fraction) (in acetonitrile, 323.15 K): 0.00195; solubility (mole fraction) (in benzyl alcohol, 278.15 K): 0.00226; solubility (mole fraction) (in benzyl alcohol, 283.15 K): 0.00262; solubility (mole fraction) (in benzyl alcohol, 288.15 K): 0.00307; solubility (mole fraction) (in benzyl alcohol, 293.15 K): 0.00374; solubility (mole fraction) (in benzyl alcohol, 298.15 K): 0.00452; solubility (mole fraction) (in benzyl alcohol, 303.15 K): 0.00553; solubility (mole fraction) (in benzyl alcohol, 308.15 K): 0.00661; solubility (mole fraction) (in benzyl alcohol, 313.15 K): 0.00806; solubility (mole fraction) (in benzyl alcohol, 318.15 K): 0.0101; solubility (mole fraction) (in benzyl alcohol, 323.15 K): 0.0128; solubility (mole fraction) (in ethanol, 278.15 K): 8.3e-05; solubility (mole fraction) (in ethanol, 283.15 K): 0.000128; solubility (mole fraction) (in ethanol, 288.15 K): 0.000198; solubility (mole fraction) (in ethanol, 293.15 K): 0.000303; solubility (mole fraction) (in ethanol, 298.15 K): 0.00045; solubility (mole fraction) (in ethanol, 303.15 K): 0.000679; solubility (mole fraction) (in ethanol, 308.15 K): 0.000986; solubility (mole fraction) (in ethanol, 313.15 K): 0.00144; solubility (mole fraction) (in ethanol, 318.15 K): 0.00208; solubility (mole fraction) (in ethanol, 323.15 K): 0.00292; solubility (mole fraction) (in isopropanol, 278.15 K): 9.1e-05; solubility (mole fraction) (in isopropanol, 283.15 K): 0.000138; solubility (mole fraction) (in isopropanol, 288.15 K): 0.000209; solubility (mole fraction) (in isopropanol, 293.15 K): 0.000307; solubility (mole fraction) (in isopropanol, 298.15 K): 0.000454; solubility (mole fraction) (in isopropanol, 303.15 K): 0.000663; solubility (mole fraction) (in isopropanol, 308.15 K): 0.000945; solubility (mole fraction) (in isopropanol, 313.15 K): 0.00136; solubility (mole fraction) (in isopropanol, 318.15 K): 0.0019; solubility (mole fraction) (in isopropanol, 323.15 K): 0.00265; solubility (mole fraction) (in methanol, 278.15 K): 0.00121; solubility (mole fraction) (in methanol, 283.15 K): 0.00137; solubility (mole fraction) (in methanol, 288.15 K): 0.00157; solubility (mole fraction) (in methanol, 293.15 K): 0.00184; solubility (mole fraction) (in methanol, 298.15 K): 0.00216; solubility (mole fraction) (in methanol, 303.15 K): 0.00257; solubility (mole fraction) (in methanol, 308.15 K): 0.00305; solubility (mole fraction) (in methanol, 313.15 K): 0.00365; solubility (mole fraction) (in methanol, 318.15 K): 0.00437; solubility (mole fraction) (in methanol, 323.15 K): 0.00528; solubility (mole fraction) (in n-butanol, 278.15 K): 0.000227; solubility (mole fraction) (in n-butanol, 283.15 K): 0.000282; solubility (mole fraction) (in n-butanol, 288.15 K): 0.000354; solubility (mole fraction) (in n-butanol, 293.15 K): 0.000439; solubility (mole fraction) (in n-butanol, 298.15 K): 0.000566; solubility (mole fraction) (in n-butanol, 303.15 K): 0.00072; solubility (mole fraction) (in n-butanol, 308.15 K): 0.000908; solubility (mole fraction) (in n-butanol, 313.15 K): 0.0012; solubility (mole fraction) (in n-butanol, 318.15 K): 0.00151; solubility (mole fraction) (in n-butanol, 323.15 K): 0.00197; solubility (mole fraction) (in water, 278.15 K): 0.00163; solubility (mole fraction) (in water, 283.15 K): 0.00181; solubility (mole fraction) (in water, 288.15 K): 0.00205; solubility (mole fraction) (in water, 293.15 K): 0.00234; solubility (mole fraction) (in water, 298.15 K): 0.0027; solubility (mole fraction) (in water, 303.15 K): 0.00313; solubility (mole fraction) (in water, 308.15 K): 0.00368; solubility (mole fraction) (in water, 313.15 K): 0.00434; solubility (mole fraction) (in water, 318.15 K): 0.00509; solubility (mole fraction) (in water, 323.15 K): 0.00604
